# Experimental data from paper PMC4645181, “Spontaneous membrane-translocating peptides: influence of peptide self-aggregation and cargo polarity” (Scientific Reports, 2015).
# Values joined by “and” are separate entries in the source; they are usually repeats but may differ in a detail not shown here. Equal values may be shown once. Where a SMILES comes first, the peptide text is derived from it. The star is where a group is joined. X2 = CN(C)c1ccc2c(-c3ccc(N4C(=O)CC(*)C4=O)cc3C(=O)[O-])c3ccc(=[N+](C)C)cc-3oc2c1; X1 = CCOC(=O)c1cc2cc3c(cc2oc1=O)N(CC(=O)NCCN1C(=O)CC(*)C1=O)C(C)(C)CC3C
# What was measured:
# [1] = Critical Micelle Concentration by pyrene 1:3 ratio method; format: physicochemical; details: water solutions, 25 °C, 5 × 10^−7 μM pyrene, excitation 335 nm, I1 373 nm / I3 385 nm, 0.5-100 μM peptide, center of Boltzmann sigmoid fit
# Protocol: All the peptide solutions were always freshly prepared and dye-labeled peptides were quantified by UV-Vis absorbance. Unlabeled peptides were quantified by amino acidic digestion obtained by the mineralization of a known amount of peptide (5–50 μg) dissolved in 200–500 μl of HCl 6 M, with the following conditions: temperature: 170 °C; time: 20 minutes. Finally, derivatized amino acids were detected by RP-HPLC (Jupiter 4 μm Proteo 90 Å column (250 × 4.6 mm; Phenomenex) with these solvents: water:TFA 100:0.01 v/v (eluent A)/acetonitrile:water:TFA 95:5:0.01 v/v (eluent B), flux 1 ml/min, and their identity was confirmed by electrospray mass spectroscopy. CMC values of peptide and labeled-peptide systems were then determined by the pyrene 1:3 ratio method. Fluorescence emission spectra at 25 °C of unlabeled and labeled peptide water solutions containing 5 × 10^−7 μM pyrene were recorded using an excitation wavelength of 335 nm. The intensities I1 and I3 were measured at the wavelengths corresponding to the first and third vibronic bands of pyrene (373 nm, emission range: 368–378 nm, and 385 nm, emission range: 380–390 nm, respectively). According to literature, the plot of the pyrene 1:3 ratio index as a function of the concentration of the surfactant can be described by a decreasing sigmoid of the Boltzmann type and indicates the transition from the monomeric to the aggregated form of the peptide. Experimental raw data were fitted using the OriginPro8 software, and the center of the sigmoid is identified as the characteristic CMC.
# [2] = system: CHO-K1 cells; assay: WST-8 Cell Viability Assay; format: cell-based, Chinese Hamster
# Protocol: Cytotoxicity of unlabeled peptides and dye-labeled peptides was evaluated by the WST-8 assay. CHO-K1 cell proliferation was evaluated by plating 5 × 10^3 cells per well in 96-well plates. After 24 hours in serum-containing DMEM-F12 medium, the cells were incubated with a serum-free DMEM-F12 solution of unlabeled or dye-labeled peptides for 2 hours at 37 °C. After the incubation, the medium was removed, cells were washed with PBS 1X and incubated for 2 hours at 37 °C with 100 μl of a 10%-solution of WST-8 dissolved in serum-containing DMEM-F12. Absorbance at 450 nm was measured using a multiplate reader (Microplate Reader, GloMax®-Discover and Explorer Systems, Promega). Cell viability was quantitatively determined by comparing peptide-treated cells with untreated cells (as a reference of 100% viability) and cells treated with dimethyl sulfoxide (DMSO) 20% v/v. Reported data represent the average of three independent experiments, in which three wells for each concentration were measured. Error bars represent the standard errors.
# [3] = Dynamic Light Scattering of peptide aggregates; format: physicochemical; details: water solutions at 100 μM (above CMC), 25 °C, scattering angle 90°, average of five consecutive measurements
# Protocol: DLS measurements were performed at 25 °C in a 50-μL quartz cuvette on a Zetasizernano ZS DLS (Malvern Instrument) following the manufacturer’s instructions. Water solutions of labeled-peptide at 100 μM were analyzed with a single scattering angle of 90°. Each value reported is the average of five consecutive measurements.
# [4] = system: CHO-K1 cells; assay: Cell uptake / translocation by confocal fluorescence microscopy; format: cell-based, Chinese Hamster; details: all concentrations tested (0.5-10 μM), serum-free medium, peptide from water stock, 20 min at 37 °C
# Protocol: Homogeneous peptide solutions used for translocation experiments were always freshly prepared. Purified dye-labeled peptides were pre-dissolved in 100–200 μl of water and sonicated for 15 minutes at 25 °C. Then they were quantified by UV-Vis absorbance (concentration ranging between 100 and 200 μM; for ATTO 425 Maleimide: ε436(water) = 45000 cm^−1M^−1, for TAMRA: ε543(water) = 80000 cm^−1M^−1). An appropriate amount from this stock water-solution was diluted in 200–300 μl of serum-free DMEM F-12 growth medium and then administered to cells. Ionic strength was adjusted to physiological values adding the required amount of 10X PBS buffer.
# Chinese Hamster Ovary (CHO-K1) and PgsA-745 cells were purchased from ATCC (reference numbers: CCL-61 and CRL-2242, respectively) and grown in DMEM F-12 medium supplemented with 10% of Fetal Bovine Serum (FBS) at 37 °C with 5% CO2, according to manufacturer’s instructions. […]
# Confocal imaging experiments were performed with a Leica TCS SP5 SMD inverted confocal microscope (Leica Microsystems) interfaced with a diode laser (Picoquant) for excitation at 405 nm. […] All images and videos collected were analyzed by ImageJ software version 1.440 (NIH Image; http://rsbweb.nih.gov/ij/). […] RICS correlation function was calculated by the SimFCS software, developed at the Laboratory for Fluorescence Dynamics (www.lfd.uci.edu). […]
# [5] = UV absorption of peptide in water after addition from DMSO stock (precipitation); format: physicochemical; details: 2μM in water, added directly from DMSO stock, UV absorption versus addition from water solution; consistent with a precipitate
# Protocol: Fig S5: UV absorption spectra of TP2 at 2μM concentration in water, measured upon addition of the peptide directly from DMSO stock solution (blue trace) or from a water solution (black trace). Only this latter procedure yields the expected absorption spectrum (indicated by the dashed black line). […] This in turn is consistent with the formation of a stabilized phase that is not diffusing in solution, but likely under the form of a precipitate.
Compound,Critical Micelle Concentration (CMC) [1],cell viability ([2]; 20 µM) [%],cell viability ([2]; 30 µM) [%],hydrodynamic radius (RH) from DLS [3] [nm],uptake mechanism (confocal imaging) [4],peptide apparently lost upon direct addition from DMSO to water [5] [%]
"CN(C)c1ccc2c(-c3ccc(N4C(=O)C=CC4=O)cc3C(=O)[O-])c3ccc(N(C)C)cc3[o+]c2c1 [TAMRA, Tetramethylrhodamine-5-maleimide]",~80 µM and 80 ± 14 µM,,,,,
CCOC(=O)c1cc2cc3c(cc2oc1=O)N(CC(=O)NCCN1C(=O)CC(SC[C@H](NC(=O)CNC(=O)[C@H](CCCNC(=N)N)NC(=O)[C@H](CC(C)C)NC(=O)[C@H](CC(C)C)NC(=O)[C@H](CCCNC(=N)N)NC(=O)[C@H](CC(C)C)NC(=O)[C@H](Cc2ccc(O)cc2)NC(=O)[C@@H](NC(=O)[C@H](CC(C)C)NC(=O)[C@@H]2CCCN2)[C@@H](C)CC)C(=O)O)C1=O)C(C)(C)CC3C (stereo partly drawn) [TM9-ATTO 425] (H-PLIYLRLLRGC(X1)-OH),,60,40,,,
CC[C@H](C)[C@H](NC(=O)[C@H](CC(C)C)NC(=O)[C@@H]1CCCN1)C(=O)N[C@@H](Cc1ccc(O)cc1)C(=O)N[C@@H](CC(C)C)C(=O)N[C@@H](CCCNC(=N)N)C(=O)N[C@@H](CC(C)C)C(=O)N[C@@H](CC(C)C)C(=O)N[C@@H](CCCNC(=N)N)C(=O)NCC(=O)N[C@@H](CSC1CC(=O)N(c2ccc(-c3c4ccc(=[N+](C)C)cc-4oc4cc(N(C)C)ccc34)c(C(=O)[O-])c2)C1=O)C(=O)O (stereo partly drawn) [TM9-TAMRA] (H-PLIYLRLLRGC(X2)-OH; N-terminus and C-terminus assumed),3.8 ± 0.5 µM,,,135 ± 14,only endocytosis is present,
PLIYLRLLR-G-QF [TP2],1.0 ± 0.2 µM,,,163 ± 6,,~60
